Active and inactive are the calls of the source. A value given as a limit tells only on which side of the number the result lay.

Here are results for 25 molecules from ChEMBL document CHEMBL3991601, “The target landscape of clinical kinase drugs” (Science, 2017).

In experiment [1] the target is T1, Acyl-CoA dehydrogenase family member 10 (Homo sapiens, UniProt Q6JQN1).
T1 sequence (Q6JQN1 whole entry): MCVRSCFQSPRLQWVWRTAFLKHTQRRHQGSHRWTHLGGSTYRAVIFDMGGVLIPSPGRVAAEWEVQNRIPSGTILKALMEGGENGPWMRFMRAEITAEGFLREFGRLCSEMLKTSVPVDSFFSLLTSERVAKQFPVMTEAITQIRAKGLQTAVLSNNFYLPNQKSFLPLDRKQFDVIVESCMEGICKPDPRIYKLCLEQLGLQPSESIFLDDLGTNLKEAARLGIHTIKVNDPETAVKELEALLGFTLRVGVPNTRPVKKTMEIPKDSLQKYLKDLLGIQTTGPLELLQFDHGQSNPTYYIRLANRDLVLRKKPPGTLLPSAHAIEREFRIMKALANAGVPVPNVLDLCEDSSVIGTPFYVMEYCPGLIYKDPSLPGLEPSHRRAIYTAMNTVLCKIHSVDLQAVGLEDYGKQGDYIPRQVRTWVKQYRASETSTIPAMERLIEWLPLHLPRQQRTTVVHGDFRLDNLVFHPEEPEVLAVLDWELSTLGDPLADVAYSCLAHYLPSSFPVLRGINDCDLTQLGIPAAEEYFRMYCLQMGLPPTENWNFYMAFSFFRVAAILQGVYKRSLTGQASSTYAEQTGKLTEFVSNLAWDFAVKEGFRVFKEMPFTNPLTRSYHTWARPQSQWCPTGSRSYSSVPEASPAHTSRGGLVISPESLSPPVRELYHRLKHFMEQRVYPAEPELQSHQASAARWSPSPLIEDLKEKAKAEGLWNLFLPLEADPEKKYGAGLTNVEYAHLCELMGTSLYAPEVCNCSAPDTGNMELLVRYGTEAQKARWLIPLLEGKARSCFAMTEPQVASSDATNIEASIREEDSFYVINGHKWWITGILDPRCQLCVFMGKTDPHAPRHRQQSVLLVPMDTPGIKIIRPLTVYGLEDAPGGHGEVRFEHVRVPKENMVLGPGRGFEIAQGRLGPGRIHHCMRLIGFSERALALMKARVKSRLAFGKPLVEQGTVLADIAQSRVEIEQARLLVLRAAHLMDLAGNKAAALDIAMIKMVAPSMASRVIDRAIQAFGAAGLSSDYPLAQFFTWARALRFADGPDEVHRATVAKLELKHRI

In experiment [2] the target is Atypical kinase COQ8A, mitochondrial (Homo sapiens, UniProt Q8NI60).
For experiment [3], the target named is Mitogen-activated protein kinase 1 (Homo sapiens, UniProt P28482).
Experiment [4] deals with Serine/threonine-protein kinase pim-1 (Homo sapiens, UniProt P11309).
The target in experiment [5] is T2, Serine/threonine-protein kinase ULK1 (Homo sapiens, UniProt O75385).
T2 sequence (O75385 whole entry): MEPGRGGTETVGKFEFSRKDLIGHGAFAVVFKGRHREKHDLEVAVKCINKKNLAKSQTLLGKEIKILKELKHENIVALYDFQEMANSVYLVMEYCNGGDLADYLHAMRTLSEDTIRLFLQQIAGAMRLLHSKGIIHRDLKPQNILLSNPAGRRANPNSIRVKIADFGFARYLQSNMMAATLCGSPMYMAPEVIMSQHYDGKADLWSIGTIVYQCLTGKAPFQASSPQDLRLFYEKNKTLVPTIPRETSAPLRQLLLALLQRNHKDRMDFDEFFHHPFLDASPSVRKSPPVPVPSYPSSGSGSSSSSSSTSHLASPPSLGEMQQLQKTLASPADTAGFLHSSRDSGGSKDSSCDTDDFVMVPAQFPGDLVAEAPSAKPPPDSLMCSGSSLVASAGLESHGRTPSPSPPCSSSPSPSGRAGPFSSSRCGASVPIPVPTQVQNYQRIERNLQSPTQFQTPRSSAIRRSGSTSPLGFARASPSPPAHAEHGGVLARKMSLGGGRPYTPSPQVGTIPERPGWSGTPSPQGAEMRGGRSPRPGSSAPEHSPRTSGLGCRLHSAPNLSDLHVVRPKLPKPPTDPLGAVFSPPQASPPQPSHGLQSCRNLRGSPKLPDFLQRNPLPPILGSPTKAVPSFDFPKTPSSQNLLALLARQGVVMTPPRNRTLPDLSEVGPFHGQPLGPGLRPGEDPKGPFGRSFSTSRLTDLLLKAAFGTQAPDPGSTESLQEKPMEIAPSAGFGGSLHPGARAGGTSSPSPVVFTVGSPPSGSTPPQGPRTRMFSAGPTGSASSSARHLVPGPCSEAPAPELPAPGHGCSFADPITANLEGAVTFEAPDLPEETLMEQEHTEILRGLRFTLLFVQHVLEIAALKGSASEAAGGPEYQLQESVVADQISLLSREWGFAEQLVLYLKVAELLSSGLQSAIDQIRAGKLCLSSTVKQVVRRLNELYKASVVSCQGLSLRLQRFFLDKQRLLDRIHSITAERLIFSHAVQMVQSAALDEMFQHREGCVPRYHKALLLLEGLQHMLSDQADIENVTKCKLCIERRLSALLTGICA

In experiment [6] the target is Tyrosine-protein kinase ABL2 (Homo sapiens, UniProt P42684).
Also: in the data inactive means no Kd found up to 30 µM.

Sequence of Atypical kinase COQ8A, mitochondrial (Q8NI60 whole entry): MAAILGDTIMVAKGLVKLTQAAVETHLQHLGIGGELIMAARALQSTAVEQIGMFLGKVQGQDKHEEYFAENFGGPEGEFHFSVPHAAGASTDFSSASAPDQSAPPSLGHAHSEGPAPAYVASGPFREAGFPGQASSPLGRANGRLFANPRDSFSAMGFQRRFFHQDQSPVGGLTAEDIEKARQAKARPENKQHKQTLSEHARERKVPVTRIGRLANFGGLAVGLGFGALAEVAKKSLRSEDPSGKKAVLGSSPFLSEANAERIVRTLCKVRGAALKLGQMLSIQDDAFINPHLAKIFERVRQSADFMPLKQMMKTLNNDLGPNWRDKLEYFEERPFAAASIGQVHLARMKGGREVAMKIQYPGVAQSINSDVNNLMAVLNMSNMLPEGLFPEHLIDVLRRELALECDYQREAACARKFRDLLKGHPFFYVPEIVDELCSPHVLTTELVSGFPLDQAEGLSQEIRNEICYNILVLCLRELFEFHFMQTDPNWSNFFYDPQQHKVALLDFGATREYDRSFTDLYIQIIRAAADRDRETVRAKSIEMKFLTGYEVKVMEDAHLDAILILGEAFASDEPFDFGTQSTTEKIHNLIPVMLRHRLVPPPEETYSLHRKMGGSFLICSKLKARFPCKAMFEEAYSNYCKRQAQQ
Sequence of Tyrosine-protein kinase ABL2 (P42684 whole entry): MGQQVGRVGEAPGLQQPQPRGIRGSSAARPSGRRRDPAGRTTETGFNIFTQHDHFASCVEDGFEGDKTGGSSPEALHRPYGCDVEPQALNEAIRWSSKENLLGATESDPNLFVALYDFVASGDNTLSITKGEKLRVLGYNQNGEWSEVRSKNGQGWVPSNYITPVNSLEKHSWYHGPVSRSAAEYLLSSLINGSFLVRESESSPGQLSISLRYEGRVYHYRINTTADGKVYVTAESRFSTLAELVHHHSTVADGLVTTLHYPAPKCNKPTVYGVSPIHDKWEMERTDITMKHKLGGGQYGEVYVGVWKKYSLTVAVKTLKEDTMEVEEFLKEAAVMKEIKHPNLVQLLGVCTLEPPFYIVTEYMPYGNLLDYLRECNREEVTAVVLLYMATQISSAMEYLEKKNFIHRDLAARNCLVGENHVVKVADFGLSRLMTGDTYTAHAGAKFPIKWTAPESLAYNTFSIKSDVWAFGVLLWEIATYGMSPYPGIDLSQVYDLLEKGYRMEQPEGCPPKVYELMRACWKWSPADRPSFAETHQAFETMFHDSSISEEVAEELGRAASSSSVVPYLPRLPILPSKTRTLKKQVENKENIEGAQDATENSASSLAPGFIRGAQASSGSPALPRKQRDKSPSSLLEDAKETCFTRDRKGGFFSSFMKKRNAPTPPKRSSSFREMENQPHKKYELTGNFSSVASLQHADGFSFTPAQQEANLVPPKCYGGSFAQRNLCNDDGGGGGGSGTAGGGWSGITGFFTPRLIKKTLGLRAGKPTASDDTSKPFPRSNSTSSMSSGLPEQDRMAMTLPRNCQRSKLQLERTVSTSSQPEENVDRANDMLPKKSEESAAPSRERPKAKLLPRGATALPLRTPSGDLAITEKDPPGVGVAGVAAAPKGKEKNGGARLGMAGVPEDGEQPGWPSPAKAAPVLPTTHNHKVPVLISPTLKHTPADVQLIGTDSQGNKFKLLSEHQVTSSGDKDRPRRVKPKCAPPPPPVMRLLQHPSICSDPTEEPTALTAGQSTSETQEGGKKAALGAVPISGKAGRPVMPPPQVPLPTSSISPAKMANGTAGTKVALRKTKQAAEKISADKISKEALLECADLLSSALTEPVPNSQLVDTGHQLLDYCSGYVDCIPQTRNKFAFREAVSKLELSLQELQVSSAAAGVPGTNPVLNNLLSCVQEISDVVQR
Sequence of Serine/threonine-protein kinase pim-1 (P11309 whole entry): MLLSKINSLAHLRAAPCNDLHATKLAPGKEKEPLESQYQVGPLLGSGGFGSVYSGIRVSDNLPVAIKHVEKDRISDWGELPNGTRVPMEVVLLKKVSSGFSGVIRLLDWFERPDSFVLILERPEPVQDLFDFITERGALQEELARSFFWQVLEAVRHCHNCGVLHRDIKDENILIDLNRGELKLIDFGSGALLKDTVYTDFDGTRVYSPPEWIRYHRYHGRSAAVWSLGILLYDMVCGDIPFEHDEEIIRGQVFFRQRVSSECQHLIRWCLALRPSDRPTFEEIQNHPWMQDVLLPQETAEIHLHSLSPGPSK
Sequence of Mitogen-activated protein kinase 1 (P28482 whole entry): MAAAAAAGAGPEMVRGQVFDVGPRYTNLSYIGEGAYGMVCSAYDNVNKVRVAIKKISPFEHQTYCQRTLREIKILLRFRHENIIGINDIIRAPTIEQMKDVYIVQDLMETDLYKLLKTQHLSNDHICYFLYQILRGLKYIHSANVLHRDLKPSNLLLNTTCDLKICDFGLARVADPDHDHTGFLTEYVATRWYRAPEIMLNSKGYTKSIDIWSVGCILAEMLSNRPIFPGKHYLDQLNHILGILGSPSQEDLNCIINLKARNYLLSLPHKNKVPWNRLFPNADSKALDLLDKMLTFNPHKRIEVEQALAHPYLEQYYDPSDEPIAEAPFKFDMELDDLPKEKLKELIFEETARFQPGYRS

What is called Kd is the concentration at which binding is half-saturated. Turning to `CC(=O)c1cnc2ccc(-c3cc(Cl)c(O)c(Cl)c3)nc2c1N[C@H]1CC[C@H](CN(C)C)CC1`, the Kd in experiment [1] is > 30 µM (inactive); in experiment [2], > 30 µM (inactive); in experiment [3] it was > 30 µM (inactive); in experiment [4], 0.014 µM (active); in experiment [5], > 30 µM (inactive).

As for `COCc1c(-c2ccc(NC(=O)Nc3cc(C(F)(F)F)ccc3F)c(F)c2)c2c(N)ncnn2c1CN1CCOCC1`, the Kd in experiment [6], in experiment [1], in experiment [2], in experiment [3], in experiment [4] and in experiment [5] was > 30 µM (inactive) throughout.

In the case of `COc1cc(Nc2ncc3c(n2)-c2ccc(Cl)cc2C(c2c(F)cccc2OC)=NC3)ccc1C(=O)O` [ALISERTIB], the Kd in experiment [2] and in experiment [5] was > 30 µM (inactive) throughout.

With `O=C(Nc1c[nH]nc1-c1nc2cc(CN3CCOCC3)ccc2[nH]1)NC1CC1` [AT-9283], the Kd is 1.08 µM (active) in experiment [6]; > 30 µM (inactive) in experiment [2]; > 30 µM (inactive) in experiment [3]; > 30 µM (inactive) in experiment [4]; > 30 µM (inactive) in experiment [5].

As to `CNC(=O)c1ccccc1Sc1ccc2c(/C=C/c3ccccn3)n[nH]c2c1` [AXITINIB], the Kd in experiment [1] was > 30 µM (inactive).

Turning to `COc1cc([C@@H]2c3cc4c(cc3[C@H](O)[C@H]3COC(=O)[C@@H]23)OCO4)cc(OC)c1OC` [AXL-1717], the Kd in experiment [6], in experiment [2], in experiment [3] and in experiment [4] was > 30 µM (inactive) throughout.

For the molecule `Cc1cc(C(=O)NOCCO)c(Nc2ccc(I)cc2F)n(C)c1=O` [AZD-8330], the Kd in experiment [6], in experiment [2], in experiment [3], in experiment [4] and in experiment [5] was > 30 µM (inactive) throughout.

Take `CC(C)(C)c1nc(-c2cccc(NS(=O)(=O)c3c(F)cccc3F)c2F)c(-c2ccnc(N)n2)s1` [DABRAFENIB]: the equilibrium dissociation constant (Kd) in experiment [6] was 0.305 µM (active); in experiment [1], > 30 µM (inactive); in experiment [2] it was > 30 µM (inactive); in experiment [3], > 30 µM (inactive); in experiment [5], 0.188 µM (active).

For the molecule `Cn1cc(C2=C(c3cn(C4CCN(Cc5ccccn5)CC4)c4ccccc34)C(=O)NC2=O)c2ccccc21` [ENZASTAURIN], in experiment [1], the Kd was > 30 µM (inactive).

On to `C[C@@H](Oc1cc(-n2cnc3ccc(CN4CCN(C)CC4)cc32)sc1C(N)=O)c1ccccc1C(F)(F)F` [GSK-461364], for which the Kd in experiment [1] was > 30 µM (inactive).

`O=C(Nc1cc(C(F)(F)F)cc(C(F)(F)F)c1)c1cc(Cl)ccc1O` [IMD-0354]: the Kd in experiment [6], in experiment [1], in experiment [2] and in experiment [5] was > 30 µM (inactive) throughout.

For the molecule `CN(C[C@@H]1COCCO1)S(=O)(=O)Nc1ccc2ccc3ncc(-c4cnn(C)c4)cc3c(=O)c2c1` [MK-2461], the Kd in experiment [6], in experiment [2], in experiment [3], in experiment [4] and in experiment [5] was > 30 µM (inactive) each time.

With `COc1ncc(-c2ccc3nccc(-c4ccnnc4)c3c2)cc1NS(=O)(=O)c1ccc(F)cc1F` [OMIPALISIB], the Kd in experiment [6], in experiment [2], in experiment [3] and in experiment [5] was > 30 µM (inactive) throughout.

With `Cc1[nH]c(/C=C2\C(=O)Nc3ccccc32)c(C)c1CCC(=O)O` [ORANTINIB], the Kd in experiment [6], in experiment [1], in experiment [2] and in experiment [5] was > 30 µM (inactive) each time.

`NC(=O)c1c(OCc2c(F)cc(Br)cc2F)nsc1NC(=O)NCCCCN1CCCC1` [OSI-632]: the Kd in experiment [6] is > 30 µM (inactive); in experiment [1], > 30 µM (inactive); in experiment [2], 3.05 µM.

For `CCOc1cc2ncc(C#N)c(Nc3ccc(F)c(Cl)c3)c2cc1NC(=O)/C=C/CN(C)C` [PELITINIB], the Kd in experiment [1], in experiment [2], in experiment [3], in experiment [4] and in experiment [5] was > 30 µM (inactive) throughout.

As for `CC(=O)NCC(=O)N1[C@@H]2CC[C@H]1c1ccc(Nc3ncc(C(F)(F)F)c(NC4CCC4)n3)cc12` [PF-03814735], the Kd was > 30 µM (inactive) in experiment [6], > 30 µM (inactive) in experiment [1], > 30 µM (inactive) in experiment [2] and 0.028 µM (active) in experiment [5].

Turning to `O=C(NOCCO)c1cc(CN2OCCCC2=O)c(F)c(F)c1Nc1ccc(I)cc1F` [RO-4987655], the Kd in experiment [1] is > 30 µM (inactive).

With `N#CC[C@H](C1CCCC1)n1cc(-c2ncnc3[nH]ccc23)cn1` [RUXOLITINIB], in experiment [1], the Kd was > 30 µM (inactive).

In the case of `CN1CCN(CCOc2cc(OC3CCOCC3)c3c(Nc4c(Cl)ccc5c4OCO5)ncnc3c2)CC1` [SARACATINIB], the Kd in experiment [1] is > 30 µM (inactive); in experiment [2], 0.275 µM (active); in experiment [3], > 30 µM (inactive); in experiment [4], > 30 µM (inactive); in experiment [5], > 30 µM (inactive).

In the case of `CCS(=O)(=O)c1cccc(-c2cc(C(=O)NC3CCN(C)CC3)c(C)c3[nH]c4ncc(C)cc4c23)c1` [TAK-901], the Kd in experiment [6] was 0.422 µM (active); in experiment [2] it was > 30 µM (inactive); in experiment [3], > 30 µM (inactive); in experiment [4], > 30 µM (inactive); in experiment [5], > 30 µM (inactive).

`Cn1ncc(Cl)c1-c1cc(C(=O)N[C@H](CN)Cc2ccc(F)c(F)c2)oc1Cl` [UPROSERTIB]: the Kd in experiment [6], in experiment [2], in experiment [3], in experiment [4] and in experiment [5] was > 30 µM (inactive) each time.

Consider `CC(C)c1cc(CNc2nc(Nc3cc(C4CC4)[nH]n3)cc(N3CCN(C)CC3)n2)on1` [XL-228], for which the Kd in experiment [6] is 0.008 µM (active); in experiment [2], > 30 µM (inactive); in experiment [3] it was > 30 µM (inactive); in experiment [4], > 30 µM (inactive); in experiment [5], > 30 µM (inactive).

Take `C[C@@H](N)c1ccc(C(=O)Nc2ccnc3[nH]ccc23)cc1` [Y-39983]: the Kd in experiment [6], in experiment [2], in experiment [3], in experiment [4] and in experiment [5] was > 30 µM (inactive) throughout.

For `CN1C/C=C/CCOc2cccc(c2)-c2ccnc(n2)Nc2cccc(c2)C1` [ZOTIRACICLIB], the Kd in experiment [6], in experiment [2], in experiment [3], in experiment [4] and in experiment [5] was > 30 µM (inactive) throughout.
